Data from patent publication US8329735B2, “Tetrazole compounds which selectively modulate the CB2 receptor” (Boehringer Ingelheim International GmbH, priority 2010, dated 2012).
Values after ≈ are worked out from the molar mass of the structure shown. Like-named read-outs stand apart in the source and are kept apart here.

Columns and labels:
[1] = target: T1, human CB2R (Homo sapiens, UniProt P34972); assay: CB2R mediated modulation of cAMP synthesis; format: cell-based
T1 construct: host or cells: CHO cells
T1 sequence (P34972 whole entry): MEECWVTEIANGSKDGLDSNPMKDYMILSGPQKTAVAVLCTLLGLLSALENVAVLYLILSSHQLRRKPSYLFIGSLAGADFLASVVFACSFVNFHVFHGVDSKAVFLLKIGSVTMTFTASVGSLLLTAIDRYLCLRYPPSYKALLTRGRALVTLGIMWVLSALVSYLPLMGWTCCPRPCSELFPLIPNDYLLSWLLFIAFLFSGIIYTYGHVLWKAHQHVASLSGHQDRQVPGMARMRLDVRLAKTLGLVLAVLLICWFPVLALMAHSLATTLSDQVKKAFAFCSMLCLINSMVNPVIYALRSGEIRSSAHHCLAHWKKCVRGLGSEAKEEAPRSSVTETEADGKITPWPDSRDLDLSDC
Procedure: Compounds of the invention are evaluated for their CB2 agonist or inverse agonistic activity in accordance with the following experimental method.
(§1) CHO cells expressing human CB2R (Euroscreen) are plated at a density of 5000 cells per well in 384 well plates and incubated overnight at 37° C. After removing the media, the cells are treated with test compounds diluted in stimulation buffer containing 1 mM IBMX, 0.25% BSA and 10 uM Forskolin. The assay is incubated for 30 minutes at 37° C. Cells are lysed and the cAMP concentration is measured using DiscoverX—XS cAMP kit, following the manufacturer's protocol. In this setting, agonists will decrease forskolin induced production of cAMP while inverse agonists will further increase forskolin induced production of cAMP. EC50 of agonists are calculated as follows. The maximal amount of cAMP produced by forskolin compared to the level of cAMP inhibited by 1 uM CP55940 is defined as 100%. The EC50 value of each test compound is determined as the concentration at which 50% of the forskolin-stimulated cAMP synthesis is inhibited. Data is analyzed using a four-parameter logistic model. (Model 205 of XLfit 4.0).

[2] = target: T2, human CB1R (Homo sapiens, UniProt P21554); assay: CB1R mediated modulation of cAMP synthesis; format: cell-based; conditions: CHO cells expressing human CB1R, forskolin-stimulated cAMP
T2 construct: host or cells: CHO cells
T2 sequence (P21554 whole entry): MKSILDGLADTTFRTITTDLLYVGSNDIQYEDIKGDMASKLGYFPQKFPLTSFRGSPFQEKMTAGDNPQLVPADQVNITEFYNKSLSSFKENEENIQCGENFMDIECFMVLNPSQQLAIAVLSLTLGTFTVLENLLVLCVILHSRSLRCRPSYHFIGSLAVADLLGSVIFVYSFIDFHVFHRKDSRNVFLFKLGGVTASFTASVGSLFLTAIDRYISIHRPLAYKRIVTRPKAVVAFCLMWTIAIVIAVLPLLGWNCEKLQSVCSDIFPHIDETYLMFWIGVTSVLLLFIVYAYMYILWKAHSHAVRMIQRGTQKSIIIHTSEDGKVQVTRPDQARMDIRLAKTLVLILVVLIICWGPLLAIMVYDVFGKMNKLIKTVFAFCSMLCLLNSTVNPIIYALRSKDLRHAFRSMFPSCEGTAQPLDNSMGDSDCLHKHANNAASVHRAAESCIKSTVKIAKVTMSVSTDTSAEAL
Procedure: Compounds of the invention are evaluated for their CB1 agonist or inverse agonistic activity in accordance with the following experimental method.
as §1, with “CB1R” for “CB2R”

[3] = Aqueous (equilibrium) solubility assay; format: physicochemical; conditions: aqueous buffer, thermodynamic from solid, 48 hrs equilibrium
Procedure: The equilibrium solubility of compounds is determined in pH 2, 4.5, 6.8 buffers. Prior to solubility measurement, the crystalline/amorphous characteristics of the sample are determined by observing the powder form under polarized light microscope. Solubility is only measured when compound is crystalline.
Approximately 2 mg of compound are weighed out into a vial and 1-2 ml of buffer are added into the vial (pHs 2 & 4.5, use 1 ml and for pHs 6.8 and 7.4 use 2 ml of buffer). The vial is rotated for 48 hrs protected from light. After 48 hrs, the sample is transferred into an eppendorf tube and centrifuged for 10 minutes at 14,000 RPM, if the supernatant is not clear, it is filtered (PVDF filter). The clear supernatant is diluted if necessary, before analyzing via HPLC. The final pH of the supernatant or the filtrate is measured and reported. The external calibration curve is used to determine the solubility value. The percentage of extraneous peaks relative to the parent peak is monitored in the standard solution as well as the solubility sample. Preferred compounds of the invention will have a solubility of >100 μg/ml.

[4] = test system: Salmonella bacterial strains TA98 and TA100; assay: Ames mutagenicity assay: bacteria reverse mutation screening assay; format: cell-based; conditions: TA98 and TA100, presence or absence of S9
Procedure: The Ames ^(1) Salmonella bacterial strains used in the abbreviated screening assay ^(2) are TA98 and TA100. Actively growing (log phase) bacteria are incubated with test compound and trace amounts of histidine in the presence or absence of S9 for 48 hours on minimal agar plates. Test compound is dissolved in DMSO to a final concentration of 100 mg/ml. The stock is serially diluted to yield concentrations of 100, 50, 25 12.5 and 6.3 mg/ml. Fifty microliters of dosing solution is combined with top agar and buffer (or S9 mix) and poured on duplicate plates to yield effective doses of 5000, 2500, 1250, 625 and 313 μg/plate. Positive and negative controls plates are included. Formation of colonies after 48 hr incubation at 37° C. is an indication of genetic reversion, either arising spontaneously or caused by the test compound. The average number of spontaneous colonies growing on control plates is compared to the number of colonies on test plates. A fold increase of 2-3× over background is generally considered a positive response for mutagenicity. • 1. Maron, D. M. and Ames, B. N. (1983). “Revised Methods for the Salmonella Mutagenicity Test”. Mutat. Res. 113, 173-215. • 2. D. A. Burke, D. J. Wedd, and B. Burlinson (1996). “Use of the Miniscreen assay to screen novel compounds for bacterial mutagenicity in the pharmaceutical industry”. Mutagenesis 11: 201-205.

[5] = Human microsomal stability assay; format: in vitro ADME; conditions: human liver microsomes 1 mg protein/ml, 1 uM compound, pH 7.4
Procedure: The double time point high throughput screen for human liver microsomal metabolic stability is used to measure the in vitro metabolism of test compounds by human liver microsomal enzymes. The data collected are analyzed to calculate a half-life (t½, min) and clearance (expressed as percent hepatic blood flow, % QH) for test compounds. The assay is performed in 50 mM potassium phosphate buffer, pH 7.4 and 2.5 mM NADPH. Test samples are dissolved in DMSO and acetonitrile for a final assay concentration of 1 uM. Human liver microsomes are diluted in assay buffer to a final assay concentration of 1 mg protein/ml. Compound solution and microsome suspension are added to assay buffer for a final incubation volume of 350 ul. The preparation is incubated for 5 min in a 37° C. water bath. The reaction is started by the addition of NADPH. Volumes of 80 ul are removed from the incubation mix at 0, 5, and 30 min after the start of the reaction and added to 160 ul acetonitrile. The supernatant is transferred to 0.25 mm glass fiber filter plates and centrifuged for 5 min at 3000 rpm. Injection volumes of 10 ul are typically added to HPLC columns with formic acid in water or acetonitrile at a flow rate of 0.3 ml/min. Percent loss of parent compound is calculated from the area under each time point to determine the half-life and clearance. Preferred compounds of the invention will have a human liver microsomal stability of <25% QH.

[6] = pH 4.5 buffer, read-out: solubility at pH 4.5
[7] = pH 6.8 buffer, read-out: solubility at pH 6.8
[8] = Table XI, CHO cells expressing human CB2R, forskolin-stimulated cAMP, read-out: CB2 CAMP EC50
[9] = Table XI, read-out: CB1 CAMP EC50

Row | SMILES | EC50 [1] | EC50 ([2]; CB1 EC50, Table II) | solubility at 48 h [3, 6] | Ames [4] | EC50 ([2]; CB1 CAMP EC50, Table XI) | HLM clearance (percent hepatic blood flow) [5] | solubility at 48 h [3, 7] | EC50 [1, 8] | EC50 [2, 9]
1 | CO[C@H]1CC[C@@H](S(=O)(=O)C(C)(C)C(=O)Nc2nnn(C(C)(C)C)n2)CC1 | 0.056 µM | > 50 µM | – | – | – | – | – | – | –
2 | CC(C)(C)n1nnc(NC(=O)C(C)(C)S(=O)(=O)[C@H]2CC[C@@H](O)CC2)n1 | 0.0087 µM | > 50 µM | – | – | – | – | – | – | –
3 | CC(C)(C)n1nnc(NC(=O)C(C)(C)S(=O)(=O)CC[C@@H]2CCOC2)n1 | 0.012 µM | ~50 µM | – | – | – | – | – | – | –
4 | CCC(C)S(=O)(=O)C(C)(C)C(=O)Nc1cc(C(C)(C)C)on1 (stereo not shown) [Example 42 WO08039645] | 0.019 µM | – | 20 µg/mL (≈ 60.5 µM) | negative | > 20 µM | 68 QH % | – | – | –
5 | CCC(C)S(=O)(=O)C(C)(C)C(=O)Nc1cc(C(C)(C)C)nn1C (stereo not shown) [Example 43 WO08039645] | – | – | 1260 µg/mL (≈ 3680 µM) | positive | – | 61 QH % | 1160 µg/mL (≈ 3370 µM) | 0.642 µM | > 20 µM
6 | CCC(C)S(=O)(=O)C(C)(C)C(=O)Nc1nc(C(C)(C)C)cs1 (stereo not shown) [Example 44 WO08039645] | 0.014 µM | – | 13 µg/mL (≈ 37.5 µM) | negative | 10.7 µM | 67 QH % | – | – | –
7 | CC(C)(C)c1cc(NC(=O)C(C)(C)S(=O)(=O)CC2CCOCC2)no1 [Example 56 WO08039645] | 0.0045 µM | – | 47 µg/mL (≈ 126 µM) | negative | > 20 µM | 47 QH % | 44 µg/mL (≈ 118 µM) | – | –
8 | CC(C)(C)c1csc(NC(=O)C(C)(C)S(=O)(=O)CC2CCOCC2)n1 [Example 57 WO08039645] | 0.023 µM | – | 383 µg/mL (≈ 986 µM) | negative | 2.4 µM | 87 QH % | 406 µg/mL (≈ 1040 µM) | – | –
9 | Cn1nc(C(C)(C)C)cc1NC(=O)C(C)(C)S(=O)(=O)CC1CCOCC1 [Example 59 WO08039645] | – | – | 396 µg/mL (≈ 1030 µM) | positive | – | <30.10 QH % | 452 µg/mL (≈ 1170 µM) | 0.14 µM | > 20 µM
10 | CC(C)(C)c1cc(NC(=O)C(C)(C)S(=O)(=O)C2CCOCC2)no1 [Example 66 WO08039645] | 0.00072 µM | – | 56 µg/mL (≈ 156 µM) | negative | > 50 µM | 57 QH % | 53 µg/mL (≈ 148 µM) | – | –
11 | CC(C)(C)c1csc(NC(=O)C(C)(C)S(=O)(=O)C2CCOCC2)n1 [Example 67 WO08039645] | 0.012 µM | – | 15 µg/mL (≈ 40.1 µM) | negative | 11.4 µM | 79 QH % | 16 µg/mL (≈ 42.7 µM) | – | –
12 | Cn1nc(C(C)(C)C)cc1NC(=O)C(C)(C)S(=O)(=O)C1CCOCC1 [Example 69 WO08039645] | – | – | 1040 µg/mL (≈ 2810 µM) | positive | – | <30.10 QH % | 1230 µg/mL (≈ 3320 µM) | 0.216 µM | > 20 µM
13 | CC(C)(C)c1cc(NC(=O)C(C)(C)S(=O)(=O)c2ccc(F)cc2)no1 [Example 130 WO08014199] | 0.0024 µM | – | 5.2 µg/mL (≈ 14.1 µM) | negative | 2.24 µM | 68 QH % | 4.7 µg/mL (≈ 12.8 µM) | – | –
14 | CC(C)(C)c1cc(NC(=O)C(C)(C)S(=O)(=O)c2ccc(F)cc2)on1 [Example 248 WO08014199] | 0.00098 µM | – | 1.68 µg/mL (≈ 4.56 µM) | negative | 3.29 µM | 32 QH % | 1.25 µg/mL (≈ 3.39 µM) | – | –
15 | Cn1nc(C(C)(C)C)cc1NC(=O)C(C)(C)S(=O)(=O)c1ccc(F)cc1 [Example 251 WO08014199] | 0.00257 µM | – | 137 µg/mL (≈ 359 µM) | positive | 10.9 µM | 30 QH % | 148 µg/mL (≈ 388 µM) | – | –
16 | CC(C)(C)c1csc(NC(=O)C(C)(C)S(=O)(=O)c2ccc(F)cc2)n1 [Example 252 WO08014199] | 0.000401 µM | – | 1.74 µg/mL (≈ 4.53 µM) | negative | 0.934 µM | 85 QH % | 1.62 µg/mL (≈ 4.21 µM) | – | –
